Experiment: magnetic field-magnetization curve measured with MPMS7 (Quantum Design)
Type: physicochemical
Settings: 37 degrees Celsius (310 K)
Description: Also, FIG. 8 is a graph showing the magnetic field-magnetization curves of the Mn salen complex, the Cr salen complex, and the Fe salen complex.

Structure (SMILES): [Co+2].[O-]c1ccccc1C=NCCN=Cc1ccccc1[O-] [Co salen complex]
- magnetism from magnetic field-magnetization curve: paramagnetic

From patent publication US20140046021A1, “SELF-MAGNETIC METAL-SALEN COMPLEX COMPOUND” (IHI CORPORATION, priority 2011, published 2014)
